# Source: patent publication US20090105206A1, “Copper Melphalan And Copper Tegafur As Anti-Tumor Agents” (priority 2004, published 2009)
# Several values for one entry are separate records, joined by “and”; a condition that tells them apart may be missing. Identical values can stand only once.
# Experiments:
# [1] = in water: light blue coloring of the solution, foam on shaking
# OVCAR-3/P19 tumor cells = experiment: Example 6: NOD/SCID mice s.c. injected with OVCAR-3 tumor cells; assay type: in vivo, female NOD/SCID mice; design: Vol (tumor volume) Day 20 / Vol (tumor volume) Day 30 / Vol (tumor volume) Day 37: unit: cm^3
# Method: 2×10^6 OVCAR-3/P19 tumor cells were s.c. injected into female NOD/SCID mice. The mice were treated as follows.
# The treatment began with a mean tumor volume of 80 mm^3.
# To level possible differences in tumor volume at the start of treatment in the individual groups and to make evident differences owing to the low absolute volumes in the treatment groups, the relative tumor volumes (RTV) have been analyzed. The relative tumor volume results from the ratio of the volume on day x and the tumor volume at the start of treatment in the same test animal. […] The tumor growth was stopped in group 2 after just 7 days. After 3 days of constant tumor volume a tumor regression began from day 30 (10th day of treatment) in the test animals treated with copper-melphalan.
# [2] = system: murine renal cell carcinoma (RENCA) tumor cells applied orthotopically; experiment: Example 5: orthotopic RENCA model, late treatment from Day 10; assay type: in vivo, Balb/c mouse
# Method: (§1) The tests were carried out on a murine renal cell carcinoma model (RENCA) of the Balb/c mouse. The tumor cells were applied orthotopically into the left-hand renal capsule of syngenic mice. The effect of the treatment carried out on a primary tumor (in the implanted kidney), metastases (predominantly in the lungs, spleen and intestinal lymph nodes) and vessel density were investigated.
# (§2) After anesthesia by means of isoflurane narcosis (O2— flow approx. 2.0 l with 0.5-1.5% isoflurane) a small incision was made in the mouse's left flank. The kidney was prepared and presented free from the peritoneum. A 27 G needle was introduced via the lower kidney pole through to below the renal capsule with visual inspection, and […] in 70 μl aliquots respectively applied once. The occurrence of a visible liquid-filled blister between kidney parenchyma and renal capsule and the discoloration of the kidneys were regarded as criteria for successful application. The kidney was subsequently reset and the incision into the abdominal wall closed by means of fascia stitches and cutaneous stitches with absorbable stitching material. Five test groups with ten animals respectively were formed. Group 1 negative control, group 2 positive control melphalan (Glaxo), group 3 and 4 MOC melphalan 2.5 mg/kg and 5 mg/kg. In the case of group 5 an antiangiogenically effective substance was applied as the positive control. The start of treatment was fixed for day 1 post op. for Cu(melphalan)2. Treatment was carried out daily up to day seven (see treatment model). The test was ended after 19 days since, owing to their size, the control tumors required termination for ethical reasons.
# (§3) After selecting the animals the tissues to be examined were quickly transferred into liquid nitrogen and then frozen at −80° C. 5-10 μm thick sections were prepared from the tissue parts. The preparations were immunohistochemically dyed with an anti-CD31 antibody (Pecam-1) and the number of vessels in the control and treatment groups counted. Two sections of each tumor with three areas respectively were used for counting the vessels.
# The study report matches that of Example 4, differing only in terms of treatment intervals and dose groups. Four test groups with ten animals respectively were formed. Group 1 negative control, group 2 positive control melphalan (Glaxo), groups 3 and 4 Cu(melphalan)2 5 mg/kg and 7.5 mg/kg. The start of treatment was fixed for day 10 post op. for all groups. The intention was for daily treatment from day 10 until day 17 (see treatment model). Owing to toxicities the treatment period was reduced to day 10-14. After 18 days the test was ended since, owing to their size, the control tumors required termination for ethical reasons.
# • The implantation day was counted as day 0. • Duration of the test 18 days. • Number of animals at beginning of test 40; no animals died during the op.
# [3] = system: murine renal cell carcinoma (RENCA) tumor cells applied orthotopically; experiment: Example 4: orthotopic renal cell carcinoma model (RENCA), treatment Day 1-7; primary tumor, metastases, vessel density (anti-CD31); assay type: in vivo, Balb/c mouse; conditions: Melphalan 16.4 μmol/kg (5 mg/kg/d) i.p. Day 1-7, individual animals
# Method: as §1, §2
# • The implantation day was counted as day 0. • Duration of the test 19 days. • Number of animals at beginning of test 50, no animals died during the op.
# as §3
# [4] = Gr. 2, 5 mg/kg melphalan i.p., individual animals
# [5] = Gr. 2, 5 mg/kg melphalan i.p., n = 8
# [6] = Gr. 2, 5 mg/kg melphalan i.p., n = 8, baseline
# [7] = Melphalan 16.4 μmol/kg (5 mg/kg/d) i.p. Day 10-14, day 18, individual animals
compound,measurement,setting,value
O=c1[n-]c(=O)n(C2CCCO2)cc1F.O=c1[n-]c(=O)n(C2CCCO2)cc1F.[Cu+2] (centres unmarked) [Cu(tegafur)2],solubility behavior,[1],substantially matched that of a copper(II) salt
"N[C@@H](Cc1ccc(N(CCCl)CCCl)cc1)C(=O)O [Melphalan, 4-[bis-(2-chloroethyl)-amino]-L-phenylalanine]",Vol (tumor volume) Day 20,"OVCAR-3/P19 tumor cells; Gr. 2, 5 mg/kg melphalan i.p. days 21-37 every 2nd day, Day 20 = start of treatment (baseline), individual animals",0.04 (2×) and 0.03 and 0.10 (2×) and 0.20 and 0.05 and 0.12
same,RTV (relative tumor volume) Day 20,"OVCAR-3/P19 tumor cells; Gr. 2, 5 mg/kg melphalan i.p., Day 20 = start of treatment (baseline), individual animals",1.00
same,RTV (relative tumor volume) Day 30,OVCAR-3/P19 tumor cells; [4],2.75 and 3.00 and 1.40 and 1.75 and 3.20 and 1.42 and 2.20 and 2.50
same,RTV (relative tumor volume) Day 37,OVCAR-3/P19 tumor cells; [4],1.98 and 2.37 and 0.81 and 1.05 and 1.66 and 0.82 and 1.71 and 1.18
same,Vol (tumor volume) Day 30,OVCAR-3/P19 tumor cells; [4],0.11 and 0.09 and 0.14 and 0.35 and 0.16 and 0.17 and 0.22 and 0.10
same,Vol (tumor volume) Day 37,OVCAR-3/P19 tumor cells; [4],0.08 (3×) and 0.07 and 0.21 and 0.10 and 0.17 and 0.05
same,"RTV Day 30, mean",OVCAR-3/P19 tumor cells; [5],2.28
same,"RTV Day 30, median",OVCAR-3/P19 tumor cells; [5],2.35
same,"RTV Day 37, mean",OVCAR-3/P19 tumor cells; [5],1.45
same,"RTV Day 37, median",OVCAR-3/P19 tumor cells; [5],1.42
same,"Vol Day 30, mean",OVCAR-3/P19 tumor cells; [5],0.17
same,"Vol Day 30, median",OVCAR-3/P19 tumor cells; [5],0.15
same,"Vol Day 37, mean",OVCAR-3/P19 tumor cells; [5],0.11
same,"Vol Day 37, median",OVCAR-3/P19 tumor cells; [5],0.08
same,"RTV Day 20, mean",OVCAR-3/P19 tumor cells; [6],1.00
same,"RTV Day 20, median",OVCAR-3/P19 tumor cells; [6],1.00
same,"Vol Day 20, mean",OVCAR-3/P19 tumor cells; [6],0.09
same,"Vol Day 20, median",OVCAR-3/P19 tumor cells; [6],0.08
same,mice with RTV>1 on day 37,"OVCAR-3/P19 tumor cells; Gr. 2, 5 mg/kg melphalan, 6 of 8 mice",75%
same,tumor regression / growth at the end of treatment,"OVCAR-3/P19 tumor cells; Gr. 2, 5 mg/kg melphalan, range over test animals",between 20% tumor regression and 98% growth
same,Kidney weight,[2]; [7],2.77 gr and 1.38 gr and 0.69 gr and 2.91 gr and 1.90 gr (2×) and 1.63 gr and 2.11 gr and 1.45 gr and 1.13 gr
same,Lung weight,[2]; [7],0.14 gr and 0.15 gr and 0.13 gr (2×) and 0.28 gr and 0.11 gr and 0.38 gr and 0.10 gr and 0.31 gr
same,Number of intestinal lymph node metastases,[2]; [7],91 and 0 (3×) and 49 and 17 and 22 and 32 and 84
same,Number of lung metastases (late treatment day 10-14),[2]; [7],304 and 614 and 317 and 5 and 750 (3×) and 71 and 500 and 46
same,"Vessel density, later start of treatment day 10-14","[2]; Melphalan 16.4 μmol/kg (5 mg/kg/d) i.p. Day 10-14, individual sections",36 (2×) and 28 and 42 and 41 and 68 and 35 and 47 and 32 and 37 and 64 and 62 and 40 (2×) and 34
same,Kidney volume,"[2]; Melphalan 16.4 μmol/kg (5 mg/kg/d) i.p. from Day 10 (planned 10-17, reduced to 10-14), test ended day 18, individual animals",3.94 cm^3 and 2.59 cm^3 and 2.08 cm^3 and 4.25 cm^3 and 2.84 cm^3 and 2.20 cm^3 and 3.91 cm^3 and 3.63 cm^3 and 2.80 cm^3 and 3.23 cm^3
same,Kidney weight,[3]; day 19,1.70 gr and 0.38 gr and 0.44 gr and 0.13 gr and 1.02 gr and 1.23 gr and 0.12 gr and 0.34 gr and 0.40 gr and 0.65 gr
same,Lung weight,[3]; day 19,0.12 gr (2×) and 0.20 gr and 0.13 gr and 0.76 gr and 0.10 gr and 0.25 gr and 0.48 gr and 0.22 gr and 0.14 gr
same,Number of intestinal lymph node metastases,[3]; day 19,0 (6×) and 9 and 2 and 8 and 5
same,Number of lung metastases,[3]; day 19,7 and 273 and 1 and >750 (2×) and 28 (2×) and 5 and 640 and 328
same,Kidney volume,[3]; test ended day 19,2.69 cm^3 and 0.58 cm^3 and 1.3 cm^3 and 0.28 cm^3 and 1.76 cm^3 and 2.00 cm^3 and 0.37 cm^3 and 0.77 cm^3 and 1.26 cm^3 and 1.60 cm^3
